Series [1] is described as follows: In vitro metabolic stability assay in microsomes. The series is classed as in vitro ADME. As to conditions: for half-life at 1 µM: read-out: Degradation half-life; for microsomal CLint at 1 µM: 0.4 mg/mL. As to the method:
In vitro microsomal stability assay was performed in duplicate in a 96-well microtiter plate, using a single-point experiment design ([42]). Test compounds (1 µM) were incubated individually in human (pool of 50, mixed gender), rat (pool of 711, male Sprague Dawley), and mouse (pool of 1,634, male CD1) liver microsomes (Xenotech, Kansas, USA) to a final protein concentration of 0.4 mg/mL, suspended in 0.1 M phosphate buffer (pH 7.4). Incubations were started by the addition of NADPH (1 mM) as a cofactor and shaken for 30 min at 37°C. The reactions were quenched by the addition of 300 µL of ice-cold acetonitrile containing an internal standard (carbamazepine, 0.0236 µg/mL) and centrifuged. The supernatant was transferred to a fresh 96-well plate and analyzed by liquid chromatography-tandem mass spectrometry (LC-MS/MS) (Agilent Rapid Resolution HPLC, AB SCIEX 4500 MS). The relative loss of the parent compound over time was monitored, and plots (concentration vs time) were prepared per compound to determine the first-order rate constant for compound depletion. This was in turn used to calculate half-life, in vitro intrinsic clearance (Clint), and in vivo hepatic extraction ratio ([43]).

For series [2], the system named is heme (iron II)-initiated β-hematin formation. The series is described as follows: β-hematin inhibitory activity under reducing condition (R-BHIA). The series is classed as biochemical. The following applies: for Fold changes, IC50 (10 minutes) to IC50 (120 minutes): R-BHIA; for IC50: mean (95% CI). As to the method:
The compounds were dissolved in DMSO and diluted in DMSO to six different concentrations (1.0–32 mM). Hemin (Fe^III[PPIX]Cl) (BioXtra, Sigma-Aldrich) was first dissolved in 0.1 M NaOH and then suspended in an 80:20 vol/vol mixture of DMSO and propionate buffer (0.1 M, pH 5.6) to a stock solution at 8 mM. Reduced glutathione (GSH) was dissolved in 0.1 M NaOH and then adjusted to 10 mM using propionate buffer (0.1 M, pH 5.6). […] Then, 20 µL of the drug was added, and the plates were incubated for 2 h at 37°C. The plastic film was removed after drug incubation, 160 µL propionate buffer (1.0 M, pH 5.6) was added, and plates were incubated for 18 h at 37°C. BHIA under the oxidizing condition (O-BHIA) was prepared in parallel without adding GSH. Controls included wells without drugs and wells containing PBS 1× instead of propionate buffer. Afterward, the plates were centrifuged, the supernatant was discarded, and the pellets of β-hematin crystals were washed twice with pure DMSO and then water. The resulting β-hematin crystals were then dissolved in 200 µL 0.1 M NaOH and diluted to a 1:8 ratio. Aliquots were then transferred into a new plate and read by UV-visible absorbance at […]. Percent of BHIA was calculated in comparison to untreated wells (no drugs), and IC50 was then calculated. Two independent experiments were performed using three replicates of each drug concentration ([46]).
Figure S6: A summary of IC50 values derived from β-hematin inhibitory activity (BHIA). Footnotes for table: ^[a,b^] Values are mean and 95% confidence interval of one experiment, each concentration in triplicate. ^[a] Using heme (Fe[II]PPIX[Cl]) as a starting reagent. ^[b] Using hematin (Fe[III]PPIX[OH]) as a starting reagent. ^[c] […] CQ = chloroquine. R-BHIA = reducing β-hematin inhibitory activity. O-BHIA = oxidizing β-hematin inhibitory activity.

Series [3] concerns F32-ART (resistant) early ring-stage parasites. The series is described as follows: Ring-stage survival assay (RSA0-3h). As to conditions: 700 nM, 6 h pulse, 66 h growth. The class given is cell-based, Plasmodium falciparum. As to the method: Early ring-stage parasites (0–3 h post-invasion) of F32-ART and F32-TEM strains highly synchronized by Percoll-Sorbitol treatment were exposed to 700 nM of the drugs or 0.1% DMSO (control) for 6 h. Each drug was tested in duplicate. Parasite pellets were then washed in RPMI-1640 medium before being placed in drug-free culture conditions with 10% human serum and incubated for 66 h ([44]). Survival rates were assessed microscopically by two independent microscopists by counting the parasites in 10,000 RBCs. Three independent experiments were performed.

Series [4] relates to Ring stages of NF54 strain P. falciparum. Put plainly: Antiplasmodial activity of drug combinations (pLDH, isobologram/FIC). The series is classed as cell-based. As to conditions: Plasmodium falciparum, NF54, ring stages NF54; mean (95% CI); tested in parallel with the combination of the same line; read-out: IC50, Drugs alone. As to the method:
The activity of the drug combinations against the P. falciparum NF54 strain was determined as described above. In each experiment, drugs were tested alone and in combination. Twofold serial dilutions of the drug solutions were made using fixed molar ratios of 1:1, 1:3, and 3:1 for each combination and using two technical replicates (ranging from 200 to 1.0 nM). Parasite growth was determined by the pLDH method, as described above. IC50 values for each drug alone or in combination were determined, and an isobologram analysis was performed by plotting the fractional inhibitory concentrations (FIC) for each combination and its component drugs separately. Individual FIC values were calculated as the IC50 of the drug combination divided by the IC50 of the drug in isolation. A dashed line was plotted to indicate any additive effect and distinguish antagonism (above the dashed line) from synergism (below the dashed line). Three independent experiments were performed, each one containing two replicates. Each experiment was used to represent an isobologram analysis [mean and 95% confidence interval (CI)].
Values represent one experiment; each concentration of drug combination was tested in technical duplicate. Black dashed line indicates ΣFIC = 1 (absolute additivity). […] FIC index <1 is synergistic, ~1 is additive, and >1 is antagonistic. Nondetrimental interactions are 0.25 <ΣFIC <1.25.
^[a] Values are the mean and 95% confidence interval of one experiment for each concentration of compounds in duplicate.

On the set-up of series [5]: method as in PMID 15124211. As to conditions: cited from earlier work.
For series [6] the following is noted: elimination half-life; cited from earlier work.
Setting [7] is: both sexes, pH 7.4, human liver microsomes.
Setting [8] is: both sexes, human liver microsomes, pH 7.4.
[9] abbreviates: male, CD1, pH 7.4, mouse liver microsomes.
Setting [10] is: male, CD1, mouse liver microsomes, pH 7.4.
Setting [11] is: male, Sprague Dawley, pH 7.4, rat liver microsomes.
[12] abbreviates: male, Sprague Dawley, rat liver microsomes, pH 7.4.
The mark [13] stands for this setting: reductive step 10 minutes, read-out: IC50 (µM) values of R-BHIA using heme (iron II), 10 minutes.
Where [14] appears, read: reductive step 120 minutes, read-out: IC50 (µM) values of R-BHIA using heme (iron II), 120 minutes.

Each structure is given as a SMILES string. Where two headings read alike, the source gives them in different places.

Take `COCCOCCOCCOCCn1c(-c2ccc(-n3cc(-c4ccc(OC5OC6OC7(C)CCC8C(C)CCC(C5C)C68OO7)cc4)nn3)cc2)nc2ccccc21` (centres unmarked) [Hybrid 1]: the half-life at 1 µM stood at 5 min in series [1] (setting [7]), 7 min in series [1] (setting [9]) and 9 min in series [1] (setting [11]). In addition, the microsomal CLint at 1 µM in series [1] (setting [8]) was found to be 379 µL/min/mg; in series [1] (setting [10]) it was 240 µL/min/mg; in series [1] (setting [12]), 186 µL/min/mg. In addition, the figures for the “Drug remaining after 30 min” value in series [1] (human liver microsomes), in series [1] (mouse liver microsomes) and in series [1] (rat liver microsomes) were 1%, 6% and 10%, respectively. Further, the “Fold changes, IC50 (10 minutes) to IC50 (120 minutes)” value in series [2] was found to be 3; in series [2] (listed as LH70 (1)) it was 2.1. In addition, the results for the IC50 in series [2] (setting [13]), in series [2] (setting [14]) and in series [4] were 609 µM, 284 µM and 2.2 nM, respectively. The entries for the “Survival rate (%) from the RSA0-3h, F32-ART (resistant)” value in series [3] (listed as 1) and in series [3] (listed as hybrid 1) were 2.3 ± 0.7% and around 2%, respectively.
For the molecule `C[C@H]1[C@@H](O)O[C@@H]2O[C@@]3(C)CC[C@H]4[C@H](C)CC[C@@H]1[C@@]24OO3` [DHA, dihydroartemisinin, reference compound], the half-maximal inhibitory concentration (IC50) in series [2] (setting [13]) came out at 262 µM; in series [2] (setting [14]), 161 µM. For the same molecule, the “plasma peak of DHA in patients” value in series [5] is given as 700 nM. Further, the “half-life (t1/2)” value in series [6] is 1 to 3 h.
`CC1CCC2C(C)C(OC(=O)CCC(=O)OCCNc3ccnc4cc(Cl)ccc34)OC3OC4(C)CCC1C32OO4` (centres unmarked) [Hybrid 2]: the results for the half-life at 1 µM in series [1] (setting [7]), in series [1] (setting [9]) and in series [1] (setting [11]) were 4 min, 6 min and 5 min, respectively. Besides, the microsomal CLint at 1 µM in series [1] (setting [8]) stood at 479 µL/min/mg; in series [1] (setting [10]), 275 µL/min/mg; in series [1] (setting [12]), 376 µL/min/mg. Besides, the “Drug remaining after 30 min” value in series [1] (human liver microsomes) came out at 0.3%; in series [1] (mouse liver microsomes) it was 4%; in series [1] (rat liver microsomes), 1%. In addition, the “Survival rate (%) from the RSA0-3h, F32-ART (resistant)” value in series [3] (listed as 2) is 14.8 ± 6%; in series [3] (listed as hybrid 2), around 15%. Also, the IC50 in series [4] came to 4.7 nM.
